Test [1] has as its target T1, αSyn (Homo sapiens, UniProt P37840, Q99C).
T1 construct: made in house; host or cells: E. coli BL21(DE3), pET28b
The test can be described thus: αSyn FRET (Cy3/Cy5) oligomerization assay. The test is classed as biochemical. The procedure:
For the FRET oligomerization assay, 10 μM each of αSyn-Q-C(position number)Cy3 (donor) and αSyn-Q(position number)C-Cy5 (acceptor) in PBS (pH 7.4) were dispensed into black/clear bottom 384-well plates (Greiner) using a Mantis liquid handler (Formulatrix). The plate was sealed with AbsorbMax film (Sigma-Aldrich) and incubated at 37° C. The FRET between donor and acceptor was measured on a SpectraMax M5 Microplate Reader (Molecular Devices). An excitation wavelength of 525 nm for αSyn-Cy3 (donor), and emission wavelengths of 570 nm and 670 nm for αSyn-Cy3 (donor) and αSyn-Cy5 (acceptor) respectively were used. The plate reader PTM sensitivity is set to medium and assays executed without mixing. The signals are read at 10 minute intervals for 99 hours at 37° C. Efficiency of FRET was calculated as follows: EFRET=IAcceptor/IDonor, in which IAcceptor is acceptor emission intensity, IDonor is donor emission intensity.
• 1. Single point mutation (x to Cys) is introduced to αSyn. • 2. Cy3 and Cy5 are used as FRET probes Brief Procedure: Label αSyn Mutant with Cy3/Cy5 Dyes: • Incubate purified αSyn Q99C with 1 mM TCEP at 4° C. for 3 hours to reduce Cys; • Dissolve Cy3-maleimide or Cy5-maleimide (GE Healthcare) in DMSO; • Add 10× molar excess of dye to αSyn Q99C; • Incubate at 4° C. overnight; • Remove excess dye by HiTrap Desalting column (GE Healthcare); FRET Assay • Mix the following: • αSyn-Q99C-Cy3 5 uM • αSyn-Q99C-Cy5 5 uM
Measure the fluorescence from Cy3 and Cy5 at 37° C. for 99 hours on a plate reader (SpectraMax M5, Molecular Devices).

For test [2], the target named is αSyn (Homo sapiens, UniProt P37840). The test can be described thus: αSyn split Gaussia luciferase (GLuc) biochemical oligomerization assay. Also on record: His tag; made in house; host or cells: E. coli BL21(DE3), pET28b. As to conditions: 24 hours; for impact on αSyn oligomerization (GLuc complementation): 100 μM compound, 12.5 μM of each tagged synuclein; for impact on αSyn oligomerization relative to other active compounds (GLuc): 100 μM. On the procedure:
A mixture of purified αSyn fused at its C-terminus with either the N-Terminal or the C-terminal half of Gaussia luciferase was incubated and the formation of oligomers monitored by reconstituted luciferase activity (FIG. 9, GLuc). For comparison, fibrillization of αSyn was measured in parallel samples by measuring the fluorescence of the dye Thioflavin T (ThT) as is widely used in the field (FIG. 9, ThT). […] The αSyn-Split Gluc tags have been used to detect αSyn oligomerization in cell models via transfection and expression of DNA encoding αSyn fused to split Gluc tags, but it has not previously been used in a biochemical assay using purified proteins as shown here.
Five to […] each of αSyn-GLuc1 and μM αSyn-GLuc2, (N-terminal or C-terminal fragment of GLuc fused to the C-terminus of αSyn see Example 6) in a buffer consisting of 1 mM MgCl2, 1 mM ADP, 50 mM Na3PO4, 0.02% NaN3 and 1 mM DTT at pH 7.4, were incubated at 37° C. in a thermal cycler (BioRad DNA Engine PTC-200). In experiments in which fibrillization was also measured, samples were incubated in an air incubator with shaking at 1000 rpm. At various time points (typically 0, 6, 12, and 24 hours), Gaussia luciferase activity was quantified using a BioLux Gaussia Luciferase Assay Kit (NEB) according to the manufacturer's instructions and read on a SpectraMax M5 Microplate Reader (Molecular Devices) with 5 minute delay after the addition of substrate and 3 sec integration time reading each well.
• Mix αSyn-GLuc1 and αSyn-GLuc2 at a final concentration of 10 μM each; • Incubate at 37° C. with shaking at 1000 rpm for 120 hours; • Take aliquot at 0/3/6/12/24/48/72/96/120 hour for analysis by Gaussia luciferase activity assay and ThT assay Methods Gaussia Luciferase Assay (According to BioLux Kit Manual): • 1. Thaw reaction buffer and stabilizer; • 2. Make working solution, for each reaction: • Reaction Buffer 50 μL • BioLux Stabilizer 8 μL • Substrate 0.5 μL • 3. Mix well and wait 5 minutes to use the working solution; • 4. Take out 10 μL GLuc sample and put on white 96-well plates; • 5. Add 50 μL working solution, mix well and wait 3.5 minutes; • 6. Read on the plate reader at 480 nm ThT Assay: • 1. Dilute 1 mM Thioflavin T (M.W. 319 Da) stock in PBS to 25 μM final concentration (1:40 dilution) • 2. Pipet 95 μL of the 25 μM Thioflavin T per well of 384 well plate. • 3. Pipet αSyn fibril up and down to mix, add 5 μL to wells with Thioflavin T • 4. For controls, include 5 μL PBS alone. • 5. Incubate at room temperature for 15 min to 1 hour. • 6. Read plate (excitation 440 nm, emission 482 nm). Method Used to Screen 66 HT-CM-SPR Compounds Using αSyn-GLuc:
Reaction mix is added into 96-well PCR plate containing:
Reaction: • αSyn-GLuc1 12.5 μM • αSyn-GLuc2 12.5 μM • Compound 0/12.5/25/50/75/100 μM in DMSO 0.2% • Negative: DMSO 0.2%: • 37 degree (PCR), no shaking

“Also recorded” adds a separate entry of the source.

These results are taken from patent publication US12553889B2, “Small molecules targeting the intrinsically disordered structural ensemble of α-synuclein protect against diverse α-synuclein mediated dysfunctions” (The Regents of the University of California, priority 2019, dated 2026).

Regarding `CNC(=O)c1cc(O)ccc1N(C)C` [Compound 581823, 2-dimethylamino-5-hydroxy-N-methylbenzamide], at αSyn [1], the “activity in FRET αSyn oligomerization assay” value (“activity” for short) was “also active” and the “impact relative to 576755 in FRET αSyn oligomerization assay” value was “less impact than 576755”. Moreover, at αSyn [2], the “impact on αSyn oligomerization (GLuc complementation)” value (shortened to “impact … (GLuc complementation)”) is “demonstrated inhibition of αSyn oligomerization” and the “impact on αSyn oligomerization relative to other active compounds (GLuc)” value is listed as “less impact than 576755”.
As for `CNC(=O)c1cc(O)ccc1O` [Compound 583854, 2,5-dihydroxy-N-methylbenzamide], the “activity” value on αSyn [1] is “also active”. In addition, on αSyn [2], the “impact … (GLuc complementation)” value was “demonstrated inhibition of αSyn oligomerization”; the “impact on αSyn oligomerization relative to other active compounds (GLuc)” value is “more impact on αSyn oligomerization than 576755 and 581823”.
On to `CNC(=O)c1cc(O)ccc1N` [Compound 576755, 2-amino-5-hydroxy-N-methylbenzamide], for which the “activity” value at αSyn [1] was “block αSyn oligomerization”. In addition, the “impact … (GLuc complementation)” value on αSyn [2] is given as “impair αSyn oligomerization; also recorded: demonstrated inhibition of αSyn oligomerization”.
Regarding `Cc1c(-c2csc(NC(C(N)=O)C3CCNCC3)n2)sc2ccccc12` (stereo not shown) [Compound 573437, 2-((4-(3-methylbenzo[b]thiophen-2-yl)thiazol-2-yl)amino)-2-(piperidin-4-yl)acetamide], the “activity” value on αSyn [1] is reported as “block αSyn oligomerization”. Moreover, the “impact … (GLuc complementation)” value on αSyn [2] was “impair αSyn oligomerization”.
Turning to `CNC(=O)c1cc(O)ccc1NC` [Compound 581858, 2-methylamino-5-hydroxy-N-methylbenzamide], the “activity” value on αSyn [1] is recorded as “also active”. Also, at αSyn [2], the “impact … (GLuc complementation)” value was “demonstrated inhibition of αSyn oligomerization”; the “impact on αSyn oligomerization relative to other active compounds (GLuc)” value was “more impact on αSyn oligomerization than 576755 and 581823”.
As for `CNC(=O)CN(C(=O)Cc1noc2ccccc12)C(C)c1ccc(Cl)cc1` (stereo not shown) [Compound 582032, 2-(benzo[d]isoxazol-3-yl)-N-(1-(4-chlorophenyl)ethyl)-N-(2-(methylamino)-2-oxoethyl)acetamide], the “activity” value on αSyn [1] is “block αSyn oligomerization”. In addition, at αSyn [2], the “impact … (GLuc complementation)” value was “impair αSyn oligomerization”.
